Measured values from the METLIN SMRT retention time set (Domingo-Almenara et al. 2019).

Assay: gradient 5% acetonitrile 3 min, to 50% in 2 min, to 85% in 15 min, held 3 min, 100 µL/min
Details: column: Zorbax Extend-C18 2.1 x 50 mm; eluents: water / acetonitrile, 0.1% formic acid
Method in brief: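 Standards, all pure, were combined into mixtures of ~100 molecules and run at 100 μL/min on a Zorbax Extend-C18 column (2.1 × 50 mm, 1.8 μm) with water and acetonitrile, each containing 0.1% formic acid. A coupled quadrupole time-of-flight mass spectrometer operated in positive and negative ionization mode. Retention time values come from computationally picked adduct peaks, each inspected manually.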

| RP-LC retention time | Structure (SMILES) |
| --- | --- |
| 770 s | CC(C)(C)n1nnnc1C1CC2(CCOCC2)C(=O)N1CCc1c[nH]c2ccccc12 (configuration not stated) |
| 774 s | COC(=O)c1ccc2c(=O)n(CCc3ccccc3)c(N3CCC(C(N)=O)CC3)nc2c1 |
| 634 s | CCc1nc(N)n(CC(=O)NCc2ccc(F)cc2)c(=O)c1C |
| 719 s | CCCCN(C)C(=O)C1CCN(S(=O)(=O)c2ccc3c(c2)CCCC(=O)N3)CC1 |
| 1220 s | O=S(=O)(c1ccc2c(c1)CCC2)N1CCc2nc(-c3ccc(F)cc3)ncc2C1 |
| 574 s | O=C(Cc1ccccc1)Nc1c(-c2ccccc2)nc2ccccn12 |
| 818 s | CC1=C(c2cccc(Cl)c2)S(=O)(=O)N=C1N1CCCN(C(=O)c2ccco2)CC1 |
| 1020 s | Cc1ccc(C)c(NC(=O)C2CCN(S(=O)(=O)c3cc(-c4noc(C5CC5)n4)cs3)CC2)c1 |
| 557 s | CC1CCCCN1CCNC(=O)c1csc(-c2ccc(N3CCCC3)nc2)n1 (configuration not stated) |
| 719 s | COc1ccc(CNC(=O)c2ccc3c(c2)NC(=O)C2CCCCN32)cc1OC (configuration not stated) |
| 946 s | CCCS(=O)(=O)N1CC(=O)N(c2cccc(Cl)c2C)C(C)(C(=O)NC2CCCC2)C1 (configuration not stated) |
| 823 s | O=C(CCC1CCCCC1)Nc1cccc(-c2cn3cccnc3n2)c1 |
| 897 s | Cc1nc(-c2noc(-c3ccc(F)cc3)n2)cn1CC(=O)Nc1cccc(F)c1 |
| 874 s | CC(=O)N1c2ccc(S(=O)(=O)NCc3ccc4c(c3)CCN4C(=O)CC(C)C)cc2CC1C (configuration not stated) |
| 951 s | CC(C)CC(=O)N1CCc2c([nH]c3ccccc23)C12C(=O)N(C)c1ccccc12 (configuration not stated) |
| 949 s | Cc1ccc(Cl)cc1NC(=O)c1[nH]c(C)c(S(=O)(=O)N2CCCC2)c1C |
| 610 s | O=S(=O)(c1cccc2cccnc12)N1CCCn2nc(-c3ccncc3)cc2C1 |
| 953 s | CC(=O)c1ccc(NC(=O)Cn2c(-c3ccc(F)cc3)nc(C)cc2=O)cc1 |

| RP-LC retention time | Structure (SMILES) |
| --- | --- |
| 577 s | CC(=O)Nc1ccc(OCC(O)CN2CCC(Cc3ccccc3)CC2)cc1 (configuration not stated) |
| 1060 s | Cc1ccc(CN(C(=O)c2ccc(OCC(C)C)cc2)C2CCS(=O)(=O)C2)o1 (configuration not stated) |
| 567 s | O=C1COc2cc(S(=O)(=O)N3CCCC3C(=O)NCCN3CCCC3)c(Cl)cc2N1 (configuration not stated) |
| 718 s | Cc1cccc(CNC(=O)CCc2c(-c3ccc(Br)cc3)nc3ccccn23)c1 |
| 644 s | Cc1noc([C@@H]2CN(C(=O)CC(C)(C)C)C[C@H]2CO)n1 |
| 637 s | CC(C)CN1CCN(S(=O)(=O)c2ccc(-c3nnc(C4CC4)o3)o2)CC1 |
| 820 s | O=C(Cc1nnc2cc(-c3nc(C4CC4)no3)ccn12)NCC1CC1 |
| 620 s | CC1CN=C2C=C(N3CCN(C(=O)NCCc4ccccc4)CC3)N=CN21 (configuration not stated) |
| 574 s | CC(NC(=O)C(C)(C)C)C(=O)N1CCN(c2ccccn2)CC1 (configuration not stated) |
| 995 s | Cc1ccc(C)c(S(=O)(=O)N2CCN(c3ccc(-n4nc(C)c(C)c4C)nn3)CC2)c1 |
| 1150 s | O=C(c1ccsc1)N1CC(F)(F)C[C@H]1COc1ccc2c(c1)CCC2 |
| 577 s | O=C1NCCCCCN(C(=O)Nc2ccccc2)[C@H]2CCCC[C@@H]12 |
| 904 s | CC(=O)N1CCc2cc(N3CC(C(=O)NC(C)c4ccccn4)CC3=O)ccc21 (configuration not stated) |
| 872 s | O=C(CCCS(=O)(=O)c1ccc(F)cc1)Nc1nc2c(s1)COc1ccccc1-2 |
| 1020 s | CC(C)Oc1ccc(-c2noc(CCn3nc(-c4ccc5c(c4)OCO5)ccc3=O)n2)cc1 |
| 964 s | Cc1cc(NC(=O)CN2CCc3ccccc3C2C(=O)N2CCCCC2)ccc1F (configuration not stated) |
| 1250 s | Cc1cc(NC(=O)c2nc(C(C)C)oc2C)ccc1Cl |
| 939 s | CCC(=O)N1CCc2c([nH]c3ccccc23)C12C(=O)N(C)c1ccc(Br)cc12 (configuration not stated) |

Second part, the compound before the results:

| Structure (SMILES) | RP-LC retention time |
| --- | --- |
| CNC(=O)c1[nH]c2ccc(C)cc2c1N1CCCC1=O | 675 s |
| CCOC(=O)C(=O)Cc1nc2ccccc2s1 | 871 s |
| COc1cc(C(O)c2nc3ccccc3s2)cc(OC)c1OC (configuration not stated) | 826 s |
| COc1ccc2c(c1)C1(CCN(C(=O)Nc3ccc(C)cc3)C1)C(=O)N2 (configuration not stated) | 745 s |
| CCN(CC)C(=O)Cn1nc2cc(-c3ccc(OC)cc3)nc(C)n2c1=O | 842 s |
| COc1ccc(CCN2C(=O)C(NC(C)=O)(C(F)(F)F)C3=C2CC(C)(C)CC3=O)cc1OC (configuration not stated) | 760 s |
| COc1ccc(NC(=O)N2[C@H]3CC[C@@H]2c2cncnc2C3)c(C)c1 | 634 s |
| Cc1ccccc1NC(=O)C1CC(=O)N(c2ccc3c(c2)CCN3C(=O)C2CC2)C1 (configuration not stated) | 717 s |
| CC(C)c1noc(-c2cccnc2N2CCCN(Cc3cccc(F)c3)CC2)n1 | 708 s |
| CCC(C)NC(=O)c1cn(-c2cc(-c3nc(C4CC4)no3)ccn2)cn1 (configuration not stated) | 840 s |
| Cc1ccc(C)c(N2CCN(c3ccnc(SCC(=O)Nc4cccc(Cl)c4F)n3)CC2)c1 | 1230 s |
| CN(C1CCc2nn(CC3CC3)c(=O)n2CC1)S(=O)(=O)c1ccccc1Cl (configuration not stated) | 796 s |
| Cc1oc2ncnc(N3CCCC(C(=O)NCc4ccccc4Cl)C3)c2c1C (configuration not stated) | 892 s |
| Cc1ccc(C(=O)NCCc2sccc2C)cc1NC1=NC2CS(=O)(=O)CC2S1 (configuration not stated) | 685 s |
| O=C(CCC1CCN(S(=O)(=O)c2ccccc2)CC1)NCC1CCCCC1 | 971 s |
| Cc1ccc(-n2nc(C)c(S(=O)(=O)N3CCC(C(=O)NCC4CCCO4)CC3)c2C)cc1 (configuration not stated) | 807 s |
| Cc1nccn1Cc1noc(-c2ccccc2Cl)n1 | 615 s |
| O=S(=O)(c1ccc2nncn2c1)N(Cc1ccc(F)cc1)c1ccc(F)cc1 | 861 s |
| CCCNC(=O)C1CCCN(c2nc3ncn(CC(=O)Nc4ccc(OCC)cc4)c(=O)c3s2)C1 (configuration not stated) | 720 s |
| CCc1noc(NC(C)=O)c1-c1ccc(OC)c(S(=O)(=O)NCc2cccc(OC)c2)c1 | 786 s |
| COc1cc(NC(=O)CN2C(=O)CCc3cc(Br)ccc32)cc(OC)c1 | 898 s |
| CC(=O)c1ccc(NC(=O)CN2C(=O)CCn3nc(-c4cn(C)c5ccccc45)cc32)cc1 | 791 s |
| Cc1ccc(S(=O)(=O)N2CCC(CCNC(=O)NCC(C)C)CC2)cc1 | 877 s |
| Cc1ccc2nc(-c3cccc(Cl)c3)c(Nc3ccc4c(c3)OCCO4)n2c1 | 724 s |
| Cc1cc(=O)n(CC(=O)Nc2cccc(Cl)c2)c(-c2ccccc2)n1 | 1080 s |
| CCOc1ccc(C(=O)N2C[C@@H]3C[C@H](NC(=O)c4cccs4)[C@H]2C3)cc1 | 783 s |

| Structure (SMILES) | RP-LC retention time |
| --- | --- |
| Cc1ccc(-c2nnc(Cc3nc(-c4ccncc4)no3)o2)cc1C | 850 s |
| CCCN1CCN(c2cc(C(=O)O)c3cc(NS(=O)(=O)c4ccc(C)cc4C)ccc3n2)CC1 | 937 s |
| Cc1[nH]c2ccc(C(=O)NC3CCCC3)cc2c1C | 650 s |
| CC(C)n1c(N2CCN(C(=O)Cc3cccs3)CC2)cc(=O)n(C(C)C)c1=O | 829 s |
| COc1ccc(OC)c(S(=O)(=O)N2CCOc3ccc(NC(=O)C4CC4)cc3C2)c1 | 823 s |
| O=C(NCc1ccc2c(c1)OCO2)c1cnn2c3c(cnc12)CCCCCC3 | 1000 s |
| CCOc1ccccc1CNC(=O)CCc1nnc2c3cc(-c4ccc(OC)cc4)nn3ccn12 | 797 s |
| CCCNC(=O)c1cc2sccc2n1Cc1ccc(C)cc1 | 1060 s |
| CCOC(=O)c1c(C)oc2nc(C)nc(N3CCC(c4ccccc4)C3)c12 (configuration not stated) | 1130 s |
| Cc1cc(C)c2c(N3CCOCC3)nc(C(=O)N3CCN(C4CCCCC4)CC3)nc2n1 | 574 s |
| CCn1cc(C(=O)Nc2ccc(C)cc2)c2cccnc21 | 859 s |
| CCOC(=O)c1cc([N+](=O)[O-])sc1NC(=O)c1nc2ccccc2s1 | 1270 s |
| O=C(NCCc1ccccc1)c1nc(Cn2c(=O)oc3ccc(Cl)cc32)no1 | 966 s |
| COc1cc2c(c(O)c1OC)-c1c(cc(OC)c(OC)c1OC)CC(C)C(C)C2 (configuration not stated) | 1080 s |
| COc1cc(C(C)=O)ccc1OCC(=O)NCCn1cnc(-c2ccc(F)cc2)cc1=O | 661 s |
| Cc1cc2c(cc1S(=O)(=O)N1CCCC1C(=O)NCCc1ccccc1)OC(C)C(=O)N2 (configuration not stated) | 792 s |
| CCOc1ccc(-c2cc3c(=O)n(Cc4nc(-c5ccc(C)cc5)no4)ncn3n2)cc1 | 784 s |
| CCCN1C(=O)COc2ccc(-c3noc(-c4ccccc4Cl)n3)cc21 | 1240 s |
| CCCn1cc(CCNS(=O)(=O)c2ccc(C)cc2C)c2cccnc21 | 924 s |
| Cc1ccc(CSc2nc(CC(=O)Nc3ccc(-n4cnnn4)cc3)cs2)cc1 | 868 s |
| CCc1noc(NC(C)=O)c1-c1ccc(C)c(S(=O)(=O)Nc2cccc(C#N)c2)c1 | 776 s |
| Cc1cc(=O)n(CC(=O)Nc2ccc(F)cc2C)c(N2CCCCC2)n1 | 695 s |
| Cc1nc(-c2ccc(N3CCN(C(=O)c4cccc(C#N)c4)CC3)nc2)sc1C | 825 s |
| CN1C2CCC1CC(NC(=O)c1nn(C)c3ccccc13)C2 (configuration not stated) | 655 s |
| Cc1nc(S(=O)(=O)N2CCC(C(=O)N3CCN(c4ccc(Cl)cc4)CC3)CC2)cn1C | 859 s |
